A short description of data set [1]: Monkey PK after single-dose intravenous infusion. The data set is classed as in vivo, monkeys. Particulars: for half-life: cynomolgus, monkeys, single-dose intravenous infusion for 30 minutes, plasma, read-out: Cyno half-life (converted). On the procedure: Test compound PK was determined in monkeys (Labcorp, Madison, Wis.) following a single-dose intravenous infusion for 30 minutes. The dosing vehicle was 10% N-methylpyrrolidone; 50% polyethylene glycol 300 and 40% water (pH 8.3) for intravenous administration in monkeys. Serial blood samples were collected at predose, 0.25, 0.48 (before end of infusion), 0.58, 0.75, 1, 1.5, 2, 4, 8, 12, 24, 48, 72, 96, 120, 144, and 168 hours postdose (based on start of infusion) and plasma test compound concentrations were quantified using an LC-MS/MS method.
Nonclinical plasma samples were prepared by addition of 200 μl cold acetonitrile/internal standard solution to 96-well plates containing 50 μl aliquots of each plasma sample. After protein precipitation, each of the supernatants (50 μl) were transferred to clean 96-well plates and diluted with 450 μl of water. The sample injection volume was 2 μl. Samples were analyzed by a multiple reaction monitoring LC-MS/MS method. LC-MS system consisted of a Cohesive LX-2 multiplex with two identical DIONEX UltiMate 3000 RS pumps, Hypersil Gold C18 HPLC column (50×2.1 mm, […]; Thermo Fisher Scientific), and the ABSciex QTRAP5500 Mass Spectrometer LC-MS/MS system. Chromatography was performed using 0.1% formic acid and 1% isopropyl alcohol in aqueous solution (MP A), and 0.1% formic acid and 1% isopropyl alcohol in acetonitrile (MP B).
Plasma PK parameters for test compounds in monkeys were estimated via noncompartmental analysis using the software program Phoenix WinNonlin, version 6.3 (Pharsight Corporation, Mountain View, Calif.). The following plasma PK parameters were estimated in nonclinical species (as appropriate): observed peak plasma concentration (Cmax), time to reach Cmax (Tmax), last quantifiable plasma concentration (Clast), tin, time of Clast (Tlast), area under the plasma concentration-time curve (AUC) from time 0 to Clast (AUClast), AUC from time 0 to infinity (AUCinf), CL, mean residence time (MRT), and volume of distribution at steady state (Vss).

The subject of another data set is HIV-1 (IIIB). Put plainly: Antiviral assay in MT-4 cells. The data set is classed as cell-based. Particulars: HIV-1 IIIB infected MT-4 cells, 5 days, Cell Titer Glo, read-out: MT4 EC50. The gist of the method:
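MT-4 cells infected with a 1:250 dilution of HIV-1 IIIB stock were incubated with serially diluted (1:3) compound for 5 days at 37 °C. Viability read by Cell Titer Glo luminescence; EC50 is the concentration giving 50% decrease in signal, from sigmoidal dose-response fits.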
On the technique in general: In ATP-based viability assays light output follows the ATP content of the culture.

The test system of the next data set is pLai RLuc reporter virus. Put plainly: HIV MT-4 serum shift antiviral reporter assay. The data set is classed as cell-based. A digest of the protocol:
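MT-4 cells pre-infected with pLai RLuc virus for 2 h at 37 °C, then incubated 72 h at 37 °C with compound in medium (RPMI, 10% FBS) with or without 50% human serum; Renilla luminescence read. EC50 from sigmoidal fit; serum shift = EC50(HS/CCM)/EC50(CCM).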
Background: Reporter assays use an easily measured gene product as a stand-in for the process of interest.

Data set [2] can be described thus: Cytotoxicity assay in MT-4 cells. Particulars: human, uninfected MT-4 cells, 5 days, Cell Titer Glo; read-out: CC50. The class given is cell-based. A digest of the protocol: (§1)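 Uninfected MT-4 cells were incubated with 1:3 serially diluted compound in RPMI/10% FBS for 5 days at 37° C. Viability was read by CellTiter-Glo luminescence, with 10 μM puromycin as the baseline cytotoxicity control. Values are the concentration giving a 50% decrease in luminescence, from sigmoidal dose-response fits.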

In another data set the test system is MT-4 cells. Put plainly: Cytotoxicity assay in MT-4 cells. The class given is cell-based. A digest of the protocol:
as §1

Where [3] appears, read: Human immunodeficiency virus 1, IIIB, MT4, 120 h.
The mark [4] stands for this setting: Human immunodeficiency virus 1, 72 h, read-out: RLUC 50% HS (nM), HS/CCM: 50% human serum, 72 h, Renilla Glo.
[5] abbreviates: Human immunodeficiency virus 1, 72 h, read-out: RLUC CCM (nM), cell culture media (RPMI, 10% FBS), 72 h, Renilla Glo.
Setting [6] is: read-out: RLUC 50% HS, HS/CCM: 50% human serum, 72 h, Renilla Glo.
[7] abbreviates: HS/CCM: 50% human serum, 72 h, Renilla Glo, read-out: RLUC 50% HS.
Setting [8] is: cell culture media (RPMI, 10% FBS), 72 h, Renilla Glo, read-out: RLUC CCM.

Structures are written as SMILES. Read-outs that look alike come from different tables or passages of the source.

Take `C[C@@H]1C=C[C@H](C)N2CN1n1cc(C(=O)NCc3c(F)cc(F)cc3F)c(=O)c(O)c1C2=O` [Example C24, (1S,2R,5S)-8-hydroxy-2,5-dimethyl-7,9-dioxo-N-(2,4,6-trifluorobenzyl)-2,5,7,9-tetrahydro-1,6-methanopyrido[1,2-b][1,2,5]triazonine-10-carboxamide]: in data set [1], the half-life (in general, the time needed for the level to fall by half in the phase considered) was 57 h. The EC50 in the data set on HIV-1 (IIIB) (setting [3]) worked out at 0.98 nM; in the data set with pLai RLuc reporter virus (setting [4]) it was 328 nM; in the data set with pLai RLuc reporter virus (setting [5]) it was 0.44 nM. In addition, the CC50 – broadly, the concentration at which the toxic effect on the cells reaches its halfway point – at 5 days in data set [2] amounted to 11400 nM.

As to `C[C@H]1C=C[C@H](C)N2CN1C(=O)c1c(O)c(=O)c(C(=O)NCc3c(F)cc(F)cc3F)cn12` [Example C25, (1S,2S,5S)-8-hydroxy-2,5-dimethyl-7,9-dioxo-N-(2,4,6-trifluorobenzyl)-2,5,7,9-tetrahydro-1,6-methanopyrido[1,2-b][1,2,5]triazonine-10-carboxamide], the half-life in data set [1] is 55 h. Besides, the EC50 with HIV-1 (IIIB) amounted to 1 nM; with pLai RLuc reporter virus (setting [5]), 0.47 nM; in the data set on pLai RLuc reporter virus (setting [6]) it was 68 nM. The 50% cytotoxic concentration (CC50) at 5 days in data set [2] was 17400 nM.

Consider `C[C@H]1CC[C@H](C)N2CN1C(=O)c1c(O)c(=O)c(C(=O)NCc3c(F)cc(F)cc3F)cn12` [Example C27, (1S,2R,5S)-8-hydroxy-2,5-dimethyl-7,9-dioxo-N-(2,4,6-trifluorobenzyl)-2,3,4,5,7,9-hexahydro-1,6-methanopyrido[1,2-b][1,2,5]triazonine-10-carboxamide], for which the half-life in data set [1] is 48 h. Besides, the values for the EC50 in the data set on HIV-1 (IIIB) (setting [3]), in the data set with pLai RLuc reporter virus (setting [5]) and in the data set on pLai RLuc reporter virus (setting [6]) were 1.3 nM, 0.55 nM and 594 nM, respectively. Moreover, in data set [2], the CC50 at 5 days is 9550 nM.

As to `C[C@@H]1C=C[C@H](C)N2CN1n1cc(C(=O)NCc3ccc(F)cc3F)c(=O)c(O)c1C2=O` [Example C29, (1S,2R,5S)—N-(2,4-difluorobenzyl)-8-hydroxy-2,5-dimethyl-7,9-dioxo-2,5,7,9-tetrahydro-1,6-methanopyrido[1,2-b][1,2,5]triazonine-10-carboxamide], the half-life in data set [1] is 32 h. Besides, the results for the EC50 with HIV-1 (IIIB) (setting [3]), in the data set with pLai RLuc reporter virus (setting [4]) and with pLai RLuc reporter virus (setting [5]) were 0.71 nM, 169 nM and 0.31 nM, respectively. Moreover, in data set [2], the cytotoxic concentration (CC50) at 5 days came to 18700 nM.

For the molecule `C[C@H]1C=C[C@H](C)N2CN1C(=O)c1c(O)c(=O)c(C(=O)NCc3ccc(F)cc3F)cn12` [Example C30, (1S,2S,5S)-8-hydroxy-2,5-dimethyl-7,9-dioxo-N-(2,4-difluorobenzyl)-2,5,7,9-tetrahydro-1,6-methanopyrido[1,2-b][1,2,5]triazonine-10-carboxamide], the half-life in data set [1] is 6 h. The figures for the EC50 in the data set with HIV-1 (IIIB) (setting [3]), in the data set on pLai RLuc reporter virus (setting [4]) and in the data set with pLai RLuc reporter virus (setting [5]) were 1.3 nM, 29 nM and 0.32 nM, respectively. In data set [2], the 50% cytotoxic concentration (CC50) at 5 days amounted to 35800 nM.

Take `C[C@H]1CC[C@H](C)N2CN1C(=O)c1c(O)c(=O)c(C(=O)NCc3ccc(F)cc3F)cn12` [Example C31, (1S,2S,5S)—N-(2,4-difluorobenzyl)-8-hydroxy-2,5-dimethyl-7,9-dioxo-2,3,4,5,7,9-hexahydro-1,6-methanopyrido[1,2-b][1,2,5]triazonine-10-carboxamide]: the half-life in data set [1] was 9 h. In addition, the values for the EC50 in the data set on HIV-1 (IIIB) (setting [3]), in the data set on pLai RLuc reporter virus (setting [4]) and with pLai RLuc reporter virus (setting [5]) were 0.9 nM, 328 nM and 0.41 nM, respectively. The CC50 at 5 days in data set [2] amounted to 7850 nM.

Take `C[C@@H]1CC[C@H](C)N2CN1n1cc(C(=O)NCc3ccc(F)cc3F)c(=O)c(O)c1C2=O` [Example C37, (1S,2R,5S)—N-(2,4-difluorobenzyl)-8-hydroxy-2,5-dimethyl-7,9-dioxo-2,3,4,5,7,9-hexahydro-1,6-methanopyrido[1,2-b][1,2,5]triazonine-10-carboxamide]: the half-life in data set [1] is 22 h. The EC50 in the data set on HIV-1 (IIIB) (setting [3]) amounted to 1.3 nM; with pLai RLuc reporter virus (setting [4]), 325 nM; in the data set with pLai RLuc reporter virus (setting [5]) it was 0.87 nM. In addition, the half-maximal cytotoxic concentration (CC50) at 5 days in data set [2] stood at 8570 nM.

Turning to `C[C@H]1C=C[C@@H](CF)N2CN1C(=O)c1c(O)c(=O)c(C(=O)NCc3ccc(F)cc3F)cn12` [Example C44, (2S,5S)—N-(2,4-difluorobenzyl)-2-(fluoromethyl)-8-hydroxy-5-methyl-7,9-dioxo-2,5,7,9-tetrahydro-1,6-methanopyrido[1,2-b][1,2,5]triazonine-10-carboxamide], the half-life in data set [1] was 29 h. In addition, the EC50 with HIV-1 (IIIB) (setting [3]) turned out to be 1.2 nM. Further, the cytotoxic concentration (CC50) at 5 days in data set [2] was 15000 nM.

On to `C[C@@H]1C=C[C@H](C)N2CN1n1cc(C(=O)NCc3ccc(F)c(Cl)c3F)c(=O)c(O)c1C2=O` [Example C63, (1S,2R,5S)—N-(3-chloro-2,4-difluorobenzyl)-8-hydroxy-2,5-dimethyl-7,9-dioxo-2,5,7,9-tetrahydro-1,6-methanopyrido[1,2-b][1,2,5]triazonine-10-carboxamide], for which the half-life in data set [1] is 110 h.

Consider `CC[C@@H]1C=C[C@H](C)N2CN1n1cc(C(=O)NCc3c(F)cc(F)cc3F)c(=O)c(O)c1C2=O` [Example C72, (1S,2R,5S)-2-ethyl-8-hydroxy-5-methyl-7,9-dioxo-N-(2,4,6-trifluorobenzyl)-2,5,7,9-tetrahydro-1,6-methanopyrido[1,2-b][1,2,5]triazonine-10-carboxamide], for which the half-life in data set [1] was 51 h. For the same molecule, the EC50 was 0.5 nM with HIV-1 (IIIB) (setting [3]), 251 nM in the data set on pLai RLuc reporter virus (setting [4]) and 0.33 nM in the data set on pLai RLuc reporter virus (setting [5]). The CC50 at 5 days in data set [2] stood at 13800 nM.

As to `C[C@H]1C=C[C@@H](CF)N2CN1C(=O)c1c(O)c(=O)c(C(=O)NCc3c(F)cc(F)cc3F)cn12` [Example C76, (1S,2S,5S)-2-(fluoromethyl)-8-hydroxy-5-methyl-7,9-dioxo-N-(2,4,6-trifluorobenzyl)-2,5,7,9-tetrahydro-1,6-methanopyrido[1,2-b][1,2,5]triazonine-10-carboxamide], the half-life in data set [1] is 60 h. The EC50 was 1 nM in the data set on HIV-1 (IIIB) (setting [3]), 265 nM in the data set with pLai RLuc reporter virus (setting [4]) and 0.42 nM in the data set on pLai RLuc reporter virus (setting [5]). The half-maximal cytotoxic concentration (CC50) at 5 days in data set [2] worked out at 16400 nM.

Regarding `O=C(NCc1c(F)cc(F)cc1F)c1cn2c(c(O)c1=O)C(=O)N1CCCCN2C1` [Example C108, (1R)-8-hydroxy-7,9-dioxo-N-(2,4,6-trifluorobenzyl)-2,3,4,5,7,9-hexahydro-1,6-methanopyrido[1,2-b][1,2,5]triazonine-10-carboxamide], the EC50 turned out to be 3.3 nM with HIV-1 (IIIB), 208 nM in the data set on pLai RLuc reporter virus (setting [7]) and 0.98 nM with pLai RLuc reporter virus (setting [8]). Besides, the CC50 with MT-4 cells (uninfected MT-4 cells, 5 days, Cell Titer Glo, read-out: CC50) came to 22900 nM.

Consider `O=C(NCc1c(F)cc(F)cc1F)c1cn2c(c(O)c1=O)C(=O)N1CCCCN2C1` [Example C109, (1S)-8-hydroxy-7,9-dioxo-N-(2,4,6-trifluorobenzyl)-2,3,4,5,7,9-hexahydro-1,6-methanopyrido[1,2-b][1,2,5]triazonine-10-carboxamide], for which the “Cyno half-life” value in data set [1] (in vivo, iv) is recorded as 4.7 h. For the same molecule, the EC50 turned out to be 1.2 nM with HIV-1 (IIIB), 11.4 nM in the data set with pLai RLuc reporter virus (setting [7]) and 0.62 nM with pLai RLuc reporter virus (setting [8]). Also, in the data set with MT-4 cells, the CC50 stood at 15200 nM.

The record behind these values is patent publication US11613546B2, “Substituted pyridotriazine compounds and uses thereof” (Gilead Sciences, Inc., priority 2021, dated 2023).
